For experiment [1], the target named is T1, human GLP-1R receptor (Homo sapiens, UniProt P43220, L260F).
T1 construct: expressed in transfected cells; host or cells: CHO-K1 (ATCC CCL-61)
The experiment is described as follows: CHOK1 GLP-1R cAMP Assay (HTRF). It is filed as cell-based. The settings on record: CHO-K1 cells stably expressing human GLP-1R (Leu260Phe variant), 20 min at rt. How it is done:
A cell line stably expressing the human GLP-1R receptor (NM_002062.5, including the naturally-occurring variant Leu260Phe) in a CHO-K1 (ATCC® CCL-61™) was used for assay.
GLP-1 receptor mediated agonist activity was determined in a cell-based assay measuring cyclic adenosine monophosphate (cAMP) levels in cells using Homogeneous Time-Resolved Fluorescence (HTRF) cAMP detection kit (CisBio catalog #62AM4PEC, cAMP Gs Dynamic range kit). The cAMP detection method is based on a competitive immunoassay, in which cAMP produced by the cells and cAMP labeled with the dye d2 compete for binding to a Europium-Cryptate-labeled anti-cAMP antibody. The specific HTRF signal is inversely proportional to the concentration of cAMP.
Compounds were added to individual well in 384 well-assay plates (Greiner #784076) using an Echo (LabCyte) dispenser from 10 mM stocks. Varying concentration of compounds were added to wells, and DMSO was used to normalize each well to a volume of 100 nL. A dose response curve of GLP-1(7-36)NH2 (Bachem H-6795) was included in each run. 5 μL of cAMP concentration response standards are applied in specified wells in the assay plates. Cryo-preserved cells are thawed and resuspended in assay buffer pre-heated to 37° C. (20 mM 2-[4-(2-hydroxyethyl)piperazin-1-yl]ethanesulfonic acid (HEPES) pH 7.4, 1× Hank's Balanced Salt Solution (HBSS, Life Technologies #14065) supplemented with 0.1% (w/v) bovine serum albumin (Sigma, A-7030)). Cells were centrifuged at 250*g for 5 min at rt, and resuspended in room tempered assay buffer to a final density of 0.16*10^6 cell/mL, to deliver 800 cells/well. 5 μL of assay buffer with 1 mM 3-isobutyl-1-methylxanthin (IBMX; Sigma cat I-7018) was dispensed per well in assay plates using a multidrop combi (Thermo Scientific) subsequently 5 μL of cell suspension was distributed to relevant wells in the assay using a multidrop dispenser. Assay plates were incubated 20 min at rt.
Detection reagents, Europium-Cryptate-labeled anti-cAMP antibody and cAMP labeled with the dye d2, are diluted in lysis buffer, provided by the manufacturer. 5 μL of each detection reagent is supplemented to each assay well using a multidrop dispenser. Assay plates are incubated in the dark for at least one h. The HTRF signal is measured using the HTRF module (excitation: 337 nm, emission A: 665 nm and emission B: 620 nm) in Pherastar FSX (BMG Labtech).
Raw data were converted to pM cAMP using the cAMP standard curve included in each run. Converted data were further analyzed in Genedata Screener (Genedata) and EC50 determinations were made from agonist dose-response curves analyzed with a curve fitting is program using a 4-parameter logistic dose response equation (Equation y=A+((B-A)/1+((C/x)^D))) where A is no stimulation, B is full stimulation, C is the EC50 and D is the Hill slope). The percent effect was determined relative to a saturating concentration of a full GLP-1R agonist (GLP-1(7-36)NH2 has 100% effect in this assay setup).
On the technique in general: Time-resolved FRET reads energy transfer from a long-lived donor to a nearby acceptor.

The target in experiment [2] is T2, GLP-1R in a pancreatic insulinoma cell line (EndoC-PH1) (Homo sapiens, UniProt P43220).
T2 construct: host or cells: EndoC-βH1 human pancreatic beta cell line
The experiment in a line: EndoC cAMP Accumulation Assay (HTRF). It is filed as cell-based. The note with it: EndoC-PH1 human pancreatic beta cell line, endogenous GLP-1R, 30 min at rt. An excerpt:
EndoC cAMP Accumulation Assay
A HTRF cAMP assay (cAMP Gs dynamic kit; CisoBio Cat #62AM4PEJ) was used to identify agonists of GLP-1R in a pancreatic insulinoma cell line (EndoC-PH1). […] EndoC-PHlcells have detectable GLP-1R messenger ribonucleic acid (mRNA) as detected by quantitative polymerase chain reaction (qPCR). […] The EndoC-PH1 cell line is a valid model of human beta cells and applicable for screenings to identify novel drug target candidates (Mol. Metab., 2018, 8, 144-157). CisBio HTRF cAMP kits are based on a competitive immunoassay using cryptate-labelled anti-cAMP antibody and d2-labeled cAMP. The detection kit is intended for the direct is quantitative determination of cAMP. The specific signal (i.e. energy transfer) is inversely proportional to the concentration of cAMP in the standard or sample. Test compounds (10 mM in DMSO) were diluted into assay buffer (HBSS (Sigma #H8264) supplemented with 25 mM HEPES (Gibco #15630, pH 7.4), 0.1% BSA (Sigma #A3059) and 0.5 mM IBMX (Sigma #I7018) included fresh on the day of the assay) into 96 well U-bottom plates (Greiner #650201). Diluted compounds were transferred to ECHO source polypropelene plates (Labcyte #P-05525) and dose response curves were dispensed acoustically using ECHO 550 into black shallow-well u-bottom 384-well HTRF Assay Plates (Corning 4514). Cryovials of EndoC-H1 (supplied at 1×10e^7 cells/vial) were used directly for screening. The cryovials and were removed from N2(1) and thawed rapidly in a 37° C. water bath. The cells were resuspended in assay buffer and centrifuged at 300 g for 5 min. Cells were resuspended in assay buffer at the appropriate concentration, typically at 12e5 cells per mL (3000 cells per well, dependent on cell batch) and 2.5 μL diluted cells were added to all wells of destination plate by Multidrop combi reagent dispenser (Thermofisher). The plates were incubated at rt for 30 min. The assay was stopped by adding 2.5 μL anti-cAMP cryptate solution to all wells and 2.5 μL cAMP-d2 solution (both diluted 1:20 in lysis buffer) to columns 1-22 by Combi drop. A volume of 2.5 μL cAMP-d2 solution was added to wells E23 to P24 and 2.5 μL lysis buffer added to wells A23 to D24 by multichannel pipette. The plates were incubated at rt for 1 h and read on an Envision plate reader using excitation wavelength of 320 nm and emission of […] and 660 nm.
Raw data from Envision is converted to % DeltaF according to the manufacturer's instructions. Dose response curves are analysed via 4-Parameter Logistical Analysis and assay plate Z’ values obtained. Samples are graphed as percentage (%) activation plots compared to […] with assay window defined by negative control as basal cell is cAMP levels and positive control are defined by maximum GIP (82.5 nM) signal. GLP-1 (7-36 amide, Bachem H-6795) dose response curve was included on all plates.

T2 sequence (P43220 24-463): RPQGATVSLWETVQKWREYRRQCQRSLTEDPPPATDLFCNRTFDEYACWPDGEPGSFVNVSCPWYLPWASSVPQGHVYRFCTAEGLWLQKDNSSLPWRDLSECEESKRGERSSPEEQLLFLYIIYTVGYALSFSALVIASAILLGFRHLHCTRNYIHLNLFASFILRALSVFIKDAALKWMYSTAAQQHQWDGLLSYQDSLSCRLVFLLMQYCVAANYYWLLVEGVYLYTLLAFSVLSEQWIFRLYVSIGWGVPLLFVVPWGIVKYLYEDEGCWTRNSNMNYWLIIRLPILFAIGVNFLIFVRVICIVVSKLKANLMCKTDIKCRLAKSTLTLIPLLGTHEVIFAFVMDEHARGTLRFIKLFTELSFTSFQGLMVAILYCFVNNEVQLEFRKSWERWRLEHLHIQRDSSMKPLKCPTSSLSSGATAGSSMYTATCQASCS
T1 sequence (P43220 24-463 L260F): as the sequence (P43220 24-463) above, with L237F counted along it

A word on the EC50: it is the midpoint of the concentration-response curve. `C[C@]1(c2ccc(Cl)cn2)Oc2cccc(N3CCN(Cc4nc5ccc(C(=O)O)cc5n4C[C@@H]4CCO4)[C@H]4CC[C@H]43)c2O1` (single isomer, unassigned) [Example 5b, 2-((1R*,6S*)-5-(R*)-2-(5-Chloropyridin-2-yl)-2-methylbenzo[d][1,3]dioxol-4-yl)-2,5-diazabicyclo[4.2.0]octan-2-yl)methyl)-1-(((S)-oxetan-2-yl)methyl)-1H-benzo[d]imidazole-6-carboxylic acid]: the concentration giving a half-maximal response (EC50) worked out at 18 nM in experiment [1] and 120 nM in experiment [2]. In the case of `C[C@]1(c2ccc(Cl)cn2)Oc2cccc(N3CCN(Cc4nc5c(Cl)cc(C(=O)O)cc5n4C[C@@H]4CCO4)[C@H]4CC[C@H]43)c2O1` (relative stereo) [Example 20a, 4-Chloro-2-(((1R*,6S*)-5-((R*)-2-(5-chloropyridin-2-yl)-2-methylbenzo[d1[1,3]dioxol-4-yl)-2,5-diazabicyclo[4.2.0]]octan-2-yl)methyl)-1-(((S)-oxetan-2-yl)methyl)-1H-benzo[d]imidazole-6-carboxylic acid], it took 42 nM to reach a half-maximal effect in experiment [1] (EC50). Consider `C[C@]1(c2ccc(Cl)cc2F)Oc2cccc(N3CCN(Cc4nc5ccc(C(=O)O)cc5n4C[C@@H]4CCO4)[C@H]4CC[C@@H]43)c2O1` (single isomer, unassigned) [Example 21a, 2-(((1R*,6R*)-5-((R*)-2-(4-Chloro-2-fluorophenyl)-2-methylbenzo[d][1,3]dioxol-4-yl)-2,5-diazabicyclo[4.2.0]octan-2-yl)methyl)-1-(((S)-oxetan-2-yl)methyl)-1H-benzo[d]imidazole-6-carboxylic acid], for which the EC50 came out at 7 nM in experiment [1] and 7.3 nM in experiment [2].

`C[C@]1(c2ccc(Cl)cn2)Oc2cccc(N3CCN(Cc4nc5ccc(C(=O)O)cc5n4C[C@@H]4CCO4)[C@H]4CC[C@@H]43)c2O1` (single isomer, unassigned) [Example 22b, 2-(((1R*,6R*)-5-((R*)-2-(5-Chloropyridin-2-yl)-2-methylbenzo[d][1,3]dioxol-4-yl)-2,5-diazabicyclo[4.2.0]octan-2-yl)methyl)-1-(((S)-oxetan-2-yl)methyl)-1H-benzo[d]imidazole-6-carboxylic acid]: the EC50 was found to be 5.3 nM in experiment [1] and 18 nM in experiment [2].

`C[C@]1(c2ccc(Cl)cn2)Oc2cccc(N3CCN(Cc4nc5c(Cl)cc(C(=O)O)cc5n4C[C@@H]4CCO4)[C@H]4CC[C@H]43)c2O1` (single isomer, unassigned) [Example 20b, 4-Chloro-2-(((1R*,6S*)-5-((R*)-2-(5-chloropyridin-2-yl)-2-methylbenzo[d][1,3]dioxol-4-yl)-2,5-diazabicyclo[4.2.0]octan-2-yl)methyl)-1-(((S)-oxetan-2-yl)methyl)-1H-benzo[d]imidazole-6-carboxylic acid]: in experiment [1], a half-maximal effect (EC50) was put at 140 nM. As for `C[C@]1(c2ccc(Cl)cn2)Oc2cccc(N3CCN(Cc4nc5c(F)cc(C(=O)O)cc5n4CC4(CC#N)CC4)[C@H]4CC[C@@H]43)c2O1` (single isomer, unassigned) [Example 23a], the results for the EC50 in experiment [1] and in experiment [2] were 1.1 nM and 2.8 nM, respectively. With `C[C@]1(c2ccc(Cl)cn2)Oc2cccc(N3CCN(Cc4nc5c(Cl)cc(C(=O)O)cc5n4CC4(CC#N)CC4)[C@H]4CC[C@@H]43)c2O1` (single isomer, unassigned) [Example 26d], the EC50 in experiment [1] was found to be 10 nM; in experiment [2] it was 7 nM. On to `COc1cc(C(=O)O)cc2c1nc(CN1CCN(c3cccc4c3O[C@@](C)(c3ccc(Cl)cn3)O4)[C@H]3CC[C@@H]31)n2C[C@@H]1CCCO1` (single isomer, unassigned) [Example 7a, 2-(((1R*,6R*)-5-((R*)-2-(5-Chloropyridin-2-yl)-2-methylbenzo[d][1,3]dioxol-4-yl)-2,5-diazabicyclo[4.2.0]octan-2-yl)methyl)-4-methoxy-1-(((S)-tetrahydrofuran-2-yl)methyl)-1H-benzo[d]imidazole-6-carboxylic acid], for which the figures for the concentration giving a half-maximal response (EC50) in experiment [1] and in experiment [2] were 27 nM and 72 nM, respectively. On the same counts, the results for `C[C@]1(c2ccc(Cl)cn2)Oc2cccc(N3CCN(Cc4nc5ccc(C(=O)O)cc5n4C[C@@H]4CCO4)[C@H]4CC[C@H]43)c2O1` (single isomer, unassigned) [Example 5c] are 180 nM and 1800 nM. `C[C@]1(c2ccc(Cl)cn2)Oc2cccc(N3CCN(Cc4nc5c(F)cc(C(=O)O)cc5n4C[C@@H]4CCO4)[C@H]4CC[C@H]43)c2O1` (single isomer, unassigned) [Example 1a, 2-((1R*,6S*)-5-(R*)-2-(5-Chloropyridin-2-yl)-2-methylbenzo[d][1,3]dioxol-4-yl)-2,5-diazabicyclo[4.2.0]octan-2-yl)methyl)-4-fluoro-1-(((S)-oxetan-2-yl)methyl)-1H-benzo[d]imidazole-6-carboxylic acid]: the EC50 in experiment [1] turned out to be 66 nM; in experiment [2] it was 280 nM.

As to `CC1(c2ccc(Cl)cn2)Oc2cccc(N3CCN(Cc4nc5c(F)cc(C(=O)O)cc5n4CCOC4CC4(F)F)[C@H]4CC[C@@H]43)c2O1` (mixture of isomers) [Example 14, rac-2-(((1R,6R)-5-(2-(5-Chloropyridin-2-yl)-2-methylbenzo[d][1,3]dioxol-4-yl)-2,5-diazabicyclo[4.2.0]octan-2-yl)methyl)-1-(2-(2,2-difluorocyclopropoxy)ethyl)-4-fluoro-1H-benzo[d]imidazole-6-carboxylic acid], the figures for the EC50 in experiment [1] and in experiment [2] were 45 nM and 38 nM, respectively. In experiment [1], `COc1cc(C(=O)O)cc2c1nc(CN1CCN(c3cccc4c3OC(C)(c3ccc(Cl)cn3)O4)[C@H]3CC[C@@H]31)n2CCOC1CC1(F)F` (mixture of isomers) [Example 13, rac-2-(((1R,6R)-5-(2-(5-Chloropyridin-2-yl)-2-methylbenzo[d][1,3]dioxol-4-yl)-2,5-diazabicyclo[4.2.0]octan-2-yl)methyl)-1-(2-(2,2-difluorocyclopropoxy)ethyl)-4-methoxy-1H-benzo[d]imidazole-6-carboxylic acid] showed a 50% effective concentration (EC50) of 5.2 nM.

For the origin of these results see patent US20240417393A1, “CERTAIN 2,5-DIAZABICYCLO[4.2.0]OCTANES AS GLP-1 RECEPTOR MODULATORS” (ASTRAZENECA AB, priority 2021, published 2024).
